From US20110098352A1, “N,N-DISUBSTITUTED AMINOALKYLBIPHENYL ANTAGONISTS OF PROSTAGLANDIN D2 RECEPTORS” (AMIRA PHARMACEUTICALS, INC., priority 2008, published 2011)

Experiments:
human DP2 receptor = biological target: T1, human DP2 receptor (Homo sapiens, UniProt Q9Y5Y4); test: DP2/CRTH2 radioligand binding assay using [3H]PGD2; details: [3H]PGD2 binding, membranes of HEK293 cells expressing recombinant human DP2; read-out: hDP2
T1 construct: expressed in transfected cells
T1 sequence (Q9Y5Y4 1-395): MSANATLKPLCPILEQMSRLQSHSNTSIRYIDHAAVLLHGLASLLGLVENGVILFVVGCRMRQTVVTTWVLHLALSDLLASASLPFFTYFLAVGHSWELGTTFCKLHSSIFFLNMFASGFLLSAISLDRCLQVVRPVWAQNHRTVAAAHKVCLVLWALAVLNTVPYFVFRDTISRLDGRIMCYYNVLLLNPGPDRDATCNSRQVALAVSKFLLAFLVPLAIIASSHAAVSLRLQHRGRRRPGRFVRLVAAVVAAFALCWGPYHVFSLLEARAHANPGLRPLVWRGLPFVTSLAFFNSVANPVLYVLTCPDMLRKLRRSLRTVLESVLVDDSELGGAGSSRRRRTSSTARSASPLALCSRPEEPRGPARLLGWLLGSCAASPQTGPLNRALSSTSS
Description: The ability of a compound to bind to the human DP2 receptor is assessed via a radioligand binding assay using [^3H]PGD2. HEK293 cells stably expressing recombinant human DP2 are resuspended in 10 mM Hepes, 7.4 containing 1 mM DTT, lysed and centrifuged at 75,000×g to pellet the membranes. The membranes are resuspended in 10 mM Hepes, 7.4 containing 1 mM DTT and 10% glycerol to approximately 5 mg protein/ml. Membranes (2-10 μg protein/well) are incubated in 96-well plates with 1 nM [^3H]PGD2 and test compound in Assay Buffer (50 mM Hepes, 10 mM MnCl2, 1 mM EDTA, plus or minus 0.2% human serum albumin, pH 7.4) for 60 minutes at room temperature. The reactions are terminated by rapid filtration through Whatman GF/C glass fibre filter plates. The filter plates were pre-soaked in 0.33% polythylenimine for 30 minutes at room temperature then washed in Wash Buffer (50 mM Hepes, 0.5 M NaCl pH 7.4) prior to harvesting. After harvesting, the filter plates are washed 3 times with 1 ml cold Wash Buffer then dried. Scintillant is then added to the plates and the radioactivity retained on the filters is determined on a Packard TopCount (Perkin Elmer). Specific binding is determined as total radioactive binding minus non-specific binding in the presence of 10 μM PGD2. IC50s were determined using GraphPad prism analysis of drug titration curves.

human DP1 receptor = biological target: T2, human DP1 receptor (Homo sapiens, UniProt Q13258); test: DP1 radioligand membrane binding assay using [3H]BWA868C; details: [3H]BWA868C binding, human platelet membranes; read-out: hDP1
T2 construct: tissue Biological Specialty Corporation; host or cells: human platelets, membranes
T2 sequence (Q13258 1-359): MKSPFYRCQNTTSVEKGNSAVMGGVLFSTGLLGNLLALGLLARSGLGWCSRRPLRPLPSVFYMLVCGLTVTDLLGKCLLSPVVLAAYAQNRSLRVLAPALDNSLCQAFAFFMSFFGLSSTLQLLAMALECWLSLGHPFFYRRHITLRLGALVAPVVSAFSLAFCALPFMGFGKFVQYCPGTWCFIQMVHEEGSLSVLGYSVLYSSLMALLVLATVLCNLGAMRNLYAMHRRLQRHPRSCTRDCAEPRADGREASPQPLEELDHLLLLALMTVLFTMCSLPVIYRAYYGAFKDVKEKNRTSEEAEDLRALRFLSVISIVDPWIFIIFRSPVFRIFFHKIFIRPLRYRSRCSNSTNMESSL
Description: The ability of a compound to bind to the human DP1 receptor was evaluated via a radioligand membrane binding assay using the DP1 selective synthetic ligand [^3H]BWA868C. Packed human platelets (Biological Specialty Corporation), were resuspended in 6 volumes of Hepes/HBSS buffer (10 mM Hepes, 1 mM DTT in Hanks Balanced Salt Solution (HBSS)), lysed and centrifuged at 75,000×g to pellet the membranes. Membranes were resuspended in Hepes/HBSS buffer to approximately 12 mg protein/ml. Membranes (20 μg protein/well) are incubated in 96-well plates with 2 nM [^3H]BWA868C and test compound in Assay Buffer (50 mM Hepes, 10 mM MnCl2, 1 mM EDTA, plus or minus 0.2% human serum albumin, pH 7.4) for 60 minutes at room temperature. The reactions are terminated by rapid filtration through Whatman GF/C glass fibre filter plates. The filter plates were pre-soaked in […] polethylenimine for 30 minutes at room temperature then washed in Wash Buffer (50 mM Hepes, 0.5 M NaCl pH 7.4) prior to harvesting. After harvesting, the filter plates are washed 3 times with 1 ml cold Wash Buffer then dried. Scintillant is then added to the plates and the radioactivity retained on the filters is determined on a Packard TopCount (Perkin Elmer). Specific binding is determined as total radioactive binding minus non-specific binding in the presence of 10 μM BWA868C. IC50s were determined using GraphPad prism analysis of drug titration curves.

[1] = biological target: T3, recombinant human CRTH2 receptor (Homo sapiens, UniProt Q9Y5Y4); test: GTPγS binding assay; type: biochemical; details: +HSA; CHO cell membranes, 80 nM PGD2; read-out: hDP2 GTPγS μM (+HSA)
T3 construct: expressed in transfected cells
T3 sequence (Q9Y5Y4 1-395): T1 sequence (Q9Y5Y4 1-395)
Description: The ability of a compound to inhibit binding of GTP to DP2 is assessed via a membrane GTPγS assay. CHO cells stably expressing the recombinant human CRTH2 receptor are resuspended in 10 mM Hepes, 7.4 containing 1 mM DTT, lysed and centrifuged at 75,000×g to pellet the membranes. The membranes are resuspended in 10 mM Hepes, 7.4 containing 1 mM DTT and 10% glycerol. […] The reactions are terminated by rapid filtration through Whatman GF/B glass fibre filter plates. The filter plates are washed 3 times with 1 ml cold Assay Buffer and dried. Scintillant is then added to the plates and the radioactivity retained on the filters is determined on a Packard TopCount (Perkin Elmer). Specific binding is determined as total radioactive binding minus non-specific binding in the absence of the ligand (80 nM PGD2). IC50s were determined using Graphpad prism analysis of drug titration curves.

SMILES	IC50 (human DP2 receptor) [nM]	IC50 (human DP1 receptor) [nM]	IC50 [1] [µM]
O=C(O)CCn1c2c(c3ccccc31)C[C@H](NS(=O)(=O)c1ccc(F)cc1)CC2 [Ramatroban, reference compound]	300 to 1000	> 1000	0.3 to 1
CCN(Cc1ccccc1)C(=O)N(CC)Cc1cc(C(F)(F)F)ccc1-c1cc(CC(=O)O)ccc1OC [Compound 1-94, [2′-(3-Benzyl-1,3-diethyl-ureidomethyl)-6-methoxy-4′-trifluoromethyl-biphenyl-3-yl]-acetic acid]	< 300	> 1000	< 0.3
COc1ccc(CC(=O)O)cc1-c1ccc(C(F)(F)F)cc1CN(C)C(C)=O [Compound 1-1, {2′-[(Acetyl-methyl-amino)-methyl]-6-methoxy-4′-trifluoromethyl-biphenyl-3-yl}-acetic acid]	< 300	> 1000	< 0.3
CCN(Cc1cc(C(F)(F)F)ccc1-c1cc(CC(=O)O)ccc1OC)C(=O)COC [Compound 1-46, (2′-{[Ethyl-(2-methoxy-acetyl)-amino]-methyl}-6-methoxy-4′-trifluoromethyl-biphenyl-3-yl)-acetic acid]	< 300	> 1000	< 0.3
COc1ccc(CC(=O)O)cc1-c1ccc(C(F)(F)F)cc1CN(C(=O)OCc1ccccc1)C1CCCC1 [Compound 1-35, {2′-[(Benzyloxycarbonyl-cyclopentyl-amino)-methyl]-6-methoxy-4′-trifluoromethyl-biphenyl-3-yl}-acetic acid]	< 300	300 to 1000	< 0.3
CCN(Cc1cc(C(F)(F)F)ccc1-c1cc(CC(=O)O)ccc1OC)C(=O)OCc1cc(F)cc(F)c1 [Compound 1-40, (2′-{[(3,5-Difluoro-benzyloxycarbonyl)-ethyl-amino]-methyl}-6-methoxy-4′-trifluoromethyl-biphenyl-3-yl)-acetic acid]	< 300	> 1000	< 0.3
CCN(Cc1cc(C(F)(F)F)ccc1-c1cc(CC(=O)O)ccc1OC)C(=O)NCc1ccccc1 [Compound 1-96, [2′-(3-Benzyl-1-ethyl-ureidomethyl)-6-methoxy-4′-trifluoromethyl-biphenyl-3-yl]-acetic acid]	< 300	> 1000	< 0.3
CCN(Cc1cc(C(F)(F)F)ccc1-c1cc(CC(=O)O)ccc1OC)C(=O)OCc1ccc(Cl)cc1 [Compound 1-42, (2′-{[(4-Chloro-benzyloxycarbonyl)-ethyl-amino]-methyl}-6-methoxy-4′-trifluoromethyl-biphenyl-3-yl)-acetic acid]	< 300	> 1000	< 0.3
CCOc1ccc(CC(=O)O)cc1-c1ccc(C(F)(F)F)cc1CN(CC)C(=O)OCc1ccccc1 [Compound 1-129]	< 300	> 1000	< 0.3
CCN(Cc1cc(C(F)(F)F)ccc1-c1cc(CC(=O)O)ccc1OC)C(C)=O [Compound 1-2, {2′-[(Acetyl-ethyl-amino)-methyl]-6-methoxy-4′-trifluoromethyl-biphenyl-3-yl}-acetic acid]	< 300	> 1000	< 0.3

The remaining lines, values ahead:

IC50 (human DP2 receptor) [nM]	IC50 (human DP1 receptor) [nM]	IC50 [1] [µM]	SMILES
< 300	> 1000	< 0.3	COc1ccc(CC(=O)O)cc1-c1ccc(C(F)(F)F)cc1CN(C(C)=O)C1CCCC1 [Compound 1-31, {2′-[(Acetyl-cyclopentyl-amino)-methyl]-6-methoxy-4′-trifluoromethyl-biphenyl-3-yl}-acetic acid]
< 300	> 1000	< 0.3	CCN(Cc1cc(C(F)(F)F)ccc1-c1cc(CC(=O)O)ccc1OC)C(=O)OC [Compound 1-23, {2′-[(Ethyl-methoxycarbonyl-amino)-methyl]-6-methoxy-4′-trifluoromethyl-biphenyl-3-yl}-acetic acid]
< 300	> 1000	< 0.3	CCN(Cc1cc(C(F)(F)F)ccc1-c1cc(CC(=O)O)ccc1OC)C(=O)C(C)Oc1ccccc1 (stereo not drawn) [Compound 1-45, (2′-{[Ethyl-(2-phenoxy-propionyl)-amino]-methyl}-6-methoxy-4′-trifluoromethyl-biphenyl-3-yl)-acetic acid]
< 300	> 1000	< 0.3	CCN(Cc1cc(C(F)(F)F)ccc1-c1cc(CC(=O)O)ccc1OC)C(=O)C(F)(F)F [Compound 1-32, (2′-{[Ethyl-(2,2,2-trifluoro-acetyl)-amino]-methyl}-6-methoxy-4′-trifluoromethyl-biphenyl-3-yl)-acetic acid]
< 300	> 1000	< 0.3	COc1ccc(CC(=O)O)cc1-c1ccc(C(F)(F)F)cc1CN(C(C)=O)C1CCC1 [Compound 1-30, {2′-[(Acetyl-cyclobutyl-amino)-methyl]-6-methoxy-4′-trifluoromethyl-biphenyl-3-yl}-acetic acid]
< 300	> 1000	< 0.3	CCN(Cc1cc(C(F)(F)F)ccc1-c1cc(CC(=O)O)ccc1OC)C(=O)COc1ccccc1 [Compound 1-48, (2′-{[Ethyl-(2-phenoxy-acetyl)-amino]-methyl}-6-methoxy-4′-trifluoromethyl-biphenyl-3-yl)-acetic acid]
< 300	> 1000	< 0.3	CCN(Cc1cc(C(F)(F)F)ccc1-c1cc(CC(=O)O)ccc1OC)C(=O)C(C)(C)Oc1ccc(Cl)cc1 [Compound 1-118, [2′-({[2-(4-Chloro-phenoxy)-2-methyl-propionyl]-ethyl-amino}-methyl)-6-methoxy-4′-trifluoromethyl-biphenyl-3-yl]-acetic acid]
< 300	> 1000	< 0.3	COc1ccc(CC(=O)O)cc1-c1ccc(C(F)(F)F)cc1CN(C(C)=O)C1CC1 [Compound 1-12, {2′-[(Acetyl-cyclopropyl-amino)-methyl]-6-methoxy-4′-trifluoromethyl-biphenyl-3-yl}-acetic acid]
< 300	> 1000	< 0.3	CCN(Cc1cc(C(F)(F)F)ccc1-c1cc(CC(=O)O)ccc1OC)C(=O)OCc1ccccc1Cl [Compound 1-39, (2′-{[(2-Chloro-benzyloxycarbonyl)-ethyl-amino]-methyl}-6-methoxy-4′-trifluoromethyl-biphenyl-3-yl)-acetic acid]
